Article PMC3574224, “Na^+ Regulation in the Malaria Parasite Plasmodiumfalciparum Involves the Cation ATPase PfATP4 and Is a Target of the Spiroindolone Antimalarials” (Cell Host & Microbe, 2013)

What was measured:
P. falciparum parasites = assay: Parasite proliferation, [^3H]hypoxanthine incorporation assay, 48 hr; type: cell-based; conditions: Plasmodium falciparum; mean ± SEM, number of independent experiments in parentheses; read-out: IC50 for inhibition of parasite proliferation
Description: (§1) Parasite growth assays were performed in 96-well plates over 48 hr (commencing at the ring stage) using a standard [^3H]hypoxanthine incorporation assay ([Desjardins et al., 1979]).
(§2) Dose-response curves were obtained using the expression y = y^min + y^max/(1 + [C/IC50]^b), where y is the parameter being measured (parasite proliferation, Na^+ influx, or ATPase activity), y^min is the minimum value of y, y^max is the maximum value of y, C is the concentration of the moiety that was varied in the experiment, IC50 is the concentration at which y was reduced to 50% of y^max, and b is a fitted constant.

[1] = tested on: P. falciparum trophozoites; assay: Recovery of [Na^+]i from an imposed intracellular Na^+ load (K^+ removal and restoration); type: cell-based, Plasmodium falciparum; conditions: added with 10 mM KCl
Description: The mechanism responsible for the increase in [Na^+]i seen upon removal of extracellular K^+ was not investigated further here. However, the phenomenon does provide a useful means of imposing an intracellular Na^+ load on the parasite and of testing the effect of inhibitors on the net efflux of Na^+ from the Na^+-loaded parasite.
(§3) The [Na^+]i of saponin-isolated parasites was measured at 37°C using the Na^+-sensitive dye SBFI (Molecular Probes, Invitrogen) in conjunction with a PerkinElmer LS 50B Fluorescence Spectrometer fitted with a Dual Excitation Fast Filter. Saponin-isolated parasites were loaded with SBFI by suspension (at 1.40–1.80 × 10^8 cells/mL) for 20 min at 37°C in bicarbonate-free RPMI1640 supplemented with 20 mM D-glucose, 0.2 mM hypoxanthine, 25 mM HEPES, and 25 mg/L gentamycin sulfate (pH 7.10), to which SBFI-acetoxymethyl ester (5.5 μM) and Pluronic F-127 (0.01% w/v) were added. The dye-loaded cells were washed twice (12,000 × g, 0.5 min) in bicarbonate-free RPMI then incubated for a further 20 min at 37°C to allow for complete de-esterification of the dye before being resuspended at a final cell concentration of 1.5–2.5 × 10^7 cells/mL in standard saline. The dye-loaded cells were excited at 340 nm and 380 nm with fluorescence recorded at 490 nm. Calibration of the relationship between the 340/380 nm fluorescence ratio and [Na^+]i (see Figures S1A–S1C) was carried out as described previously ([Diarra et al., 2001]; [Harootunian et al., 1989]). Several inhibitors used in this study caused inner filter effects ([Gu and Kenny, 2009]; [Srinivas and Mutharasan, 1987]); in these cases calibration curves were generated with the inhibitors present.
The rate of efflux of Na^+ from the cells, following an imposed intracellular Na^+ load, was estimated by fitting the following function to the [Na^+]i traces: [Na^+]i = Δ[Na^+]i^max × e^-at + [Na^+]i^final, where Δ[Na^+]i^max is the increase in [Na^+]i above the normal resting value (following the imposition of an intracellular Na^+-load), t is the time after the commencement of efflux (on addition of extracellular K^+), a is a fitted constant, and [Na^+]i^final is the final value of [Na^+]i. The initial Na^+ efflux rate (at t = 0) is a × Δ[Na^+]i^max, and the half-time to complete recovery (t1/2) is ln(0.5)/-a.

[2] = tested on: P. falciparum NITD609-R^Dd2 clone #2 (mutant PfATP4); assay: Parasite proliferation, [^3H]hypoxanthine incorporation, NITD609-R^Dd2 clone #2; type: cell-based; conditions: Plasmodium falciparum, mean ± SEM (n), read-out: IC50 for inhibition of parasite proliferation by NITD246
Description: as §1, §2

[3] = tested on: P. falciparum NITD609-R^Dd2 clone #2 (mutant PfATP4); assay: Disruption of [Na^+]i regulation, SBFI-loaded trophozoites, NITD609-R^Dd2 clone #2; type: cell-based; conditions: Plasmodium falciparum, from fitted curves, read-out: IC50 for disruption of Na^+ regulation by NITD246
Description: as §3, with “present. […]” for “present.”

C[C@H]1Cc2c([nH]c3cc(F)c(F)cc23)[C@@]2(N1)C(=O)Nc1ccc(Cl)cc12 [NITD246]
IC50 (P. falciparum parasites): 0.12 ± 0.02 nM
Effect on recovery of [Na^+]i after Na^+ load ([1]; 1 nM): [Na^+]i remaining at the level reached at the point of addition of extracellular K^+
Effect on recovery of [Na^+]i after Na^+ load ([1]; 5 nM): prolonged time-dependent increase in [Na^+]i
IC50 [2]: 0.89 ± 0.12 nM
IC50 [3]: 10.4 ± 8.4 nM
